Reference: patent US11142504B2, “Substituted heterocycles as c-MYC targeting agents” (Northwestern University, priority 2016, dated 2021)

Tests used:
MV411 cells = test: AML xenograft model, combination with Ara-C; format: in vivo, CB17 SCID mice; settings: AML mice xenograft
Experimental: CB17 SCID mice were inoculated with MV411 cells at the density of 5×10^6 suspended in PBS and matrigel (1:1). The mice were randomized based on tumor volume into 6 different groups after the tumor reached ˜200 to 500 mm^3. The mice were treated either with vehicle, NU031, NU975 alone or in combination with cytarabine (Ara-C). […] (See FIG. 17).

MycCap cells [1] = test: Cell viability of MycCap cells; format: cell-based; settings: Mus musculus, Myc-CaP
PC12 cells = test: Cell viability of PC12 cells; format: cell-based; settings: for IC50: Rattus norvegicus, PC-12, Cell viability of PC12 cells
Experimental: (§1) PC3 prostate cancer cell line with high Myc level and PC12 pheochromocytoma tumor cell line with non functional Max protein, which is not dependent on Myc-Max complex, were phased from ATCC. Cells were plated in 96 well plate at 1000 cells per well, and Myc inhibitor 361 at various concentrations was added to the cells next day. After 3 days of treatment, fresh medium with 361 were added again, and cell viability was measured by MTS assay at day 5 after the treatment. (See FIG. 11).

[2] = In vitro metabolism in mouse S9 fraction; format: in vitro ADME
Experimental: (§2) In vitro metabolism of NUCC-176242 and NUCC-176248 were tested using mouse liver microsomes and a mouse S9 fraction. (See FIG. 9).

MYC/Max binding to DNA = MYC/Max binding to DNA (Homo sapiens, UniProt P01106); test: Electrophoretic mobility shift assay (EMSA)
Sequence of MYC/Max binding to DNA (P01106 whole entry, species assumed): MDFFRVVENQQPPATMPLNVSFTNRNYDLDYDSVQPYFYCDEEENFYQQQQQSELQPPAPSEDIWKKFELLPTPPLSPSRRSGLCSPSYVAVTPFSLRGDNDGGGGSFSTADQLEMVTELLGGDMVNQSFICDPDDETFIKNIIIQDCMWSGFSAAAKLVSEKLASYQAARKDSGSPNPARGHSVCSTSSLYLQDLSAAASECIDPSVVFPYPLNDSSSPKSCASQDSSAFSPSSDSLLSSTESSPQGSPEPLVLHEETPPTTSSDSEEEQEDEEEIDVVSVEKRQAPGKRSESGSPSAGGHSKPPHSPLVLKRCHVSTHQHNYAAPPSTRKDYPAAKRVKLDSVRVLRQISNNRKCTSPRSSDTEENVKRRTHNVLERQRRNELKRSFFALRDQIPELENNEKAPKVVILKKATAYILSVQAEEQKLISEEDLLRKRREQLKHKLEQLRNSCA
Experimental: We also tested our best hit compound Min9 (NUCC-0176234) and newly synthesized analogs for effects of these compounds on MYC/Max binding to DNA in electrophoretic mobility shift assays (EMSAs). (See FIG. 5a and FIG. 5b). We expected the active compounds to impair MYC/Max binding to DNA. Several structural analogs of Min9 were tested over multiple doses for inhibiting MYC-DNA binding and we observed a dose-dependent inhibition. (See FIG. 5c).

[3] = Stability in mouse liver microsomes; format: in vitro ADME; settings: % remaining of compound after 60 min treatment with mouse liver microsomes
Experimental: as §2

[4] = system: PC3 prostate cancer cell line; test: Proliferation assay (MTS), PC3 cells; format: cell-based; settings: MTS at day 5
Experimental: as §1

MycCap cells [5] = test: MycCap FVB allograft model; format: in vivo, FVB mice
Experimental: FVB mice were inoculated with 1×10^6 of MycCap cells in 100 ul of matrigel subcutaneously on both flanks of the mice. When tumor size reached average size of 150 mm^3, mice were randomized based on tumor volume to 2 groups. Mice were administered with 50 mg/kg of 361 or vehicle (Veh) twice daily intra-peritoneally for two days. The treatment was suspended for 10 day, and initiated the treatment with a lower dose […] daily for another 9 days. Tumor size was measured twice a week during the experiment. (See FIG. 15).
MycCap FVB allograft model was treated with 361 (50 mg/kg) for two days, following by two days of anti-PD-1 antibody (100 ug/day), and kept this 4-day treatment cycle for 4 cycles. (See FIG. 16).

[6] = system: MYC transcriptional activity; test: MYC E-Box luciferase reporter assay; format: cell-based; settings: MycCap Ebox-luc, 4 hours of treatment
Experimental: To test the compounds, we evaluated the in silico hits in a MYC E-Box luciferase reporter assay to measure the effects of these compounds (referred to as Min-1 to Min-32) on MYC transcriptional activity. […] (See FIG. 2).
MycCap cells stably expressing luciferase with CMV promoter (MycCap-luc) or c-Myc E-box-luciferase reporter (MycCap Ebox-luc) were plated at 10000 cells per well in 96 well white-wall plate. Serial dilutions of 361 were treated next day. At 4 hours of treatment, luminescence signal was determined immediately after adding 150 μg/ml of Luciferin to the well. (See FIG. 12).

[7] = system: MYC WT and KO fibroblasts; test: Growth inhibition of wild type and MYC knockout rat fibroblasts; format: cell-based
Source text: We tested the top 13 active compounds in the first screen assay. […] More than half of the tested compounds show better growth inhibitory effect on MYC WT compared to MYC KO cells.

[8] = system: cMYC wild-type (WT) and cMYC KO line; test: Cell viability assay, cMYC wild-type line vs cMYC KO line; format: cell-based
Experimental: Min9 (NUCC-0176234) was also tested in a cell viability assay against a cMYC wild-type (WT) and a cMYC KO line.

Row | IC50 (MYC/Max binding to DNA) | MLM % at 60 min [3] | Compound | IC50 (MycCap cells [1]) | IC50 (PC12 cells) | further results
1 | – | – | Cn1nc(C(F)(F)F)cc1-c1ccc(OCc2ccc(Cl)cc2)c(-c2ccc(Cl)c(C(F)(F)F)c2)c1O [NUCC-0200975] | 6.1 µM | 38.4 µM | anti-tumor effect in combination with Ara-C (MV411 cells; listed as 975): significant synergic anti-tumor effect with Ara-C
2 | – | – | CCc1ccc(Oc2c(-c3ccc(OCc4ccc(Cl)cc4)cc3O)n[nH]c2C(F)(F)F)cc1 [NUCC-0176242] | 3.1 µM | 9.8 µM | in vitro metabolism by mouse S9 fraction [2]: significantly metabolism by the mouse S9 fraction
3 | 63 µM | 72.9% | Cn1nc(C(F)(F)F)cc1-c1ccc(OCc2ccc(Cl)cc2)c(-c2cc(C(F)(F)F)cc(C(F)(F)F)c2)c1O [NUCC-0196361] | 3.8 µM | 30.7 µM | –
4 | – | – | Cn1nc(C(F)(F)F)cc1-c1ccc(OCc2ccc(Cl)cc2)c(-c2cc(C(F)(F)F)cc(C(F)(F)F)c2)c1O [compound 361] | – | – | proliferation of Myc dependent cell line PC3 [4]: specifically inhibits proliferation; tumor progression, combination with immunotherapy (MycCap cells [5]; 361 50 mg/kg with anti-PD-1 antibody, 4-day cycles): significantly blocks tumor progression; tumor volume (MycCap cells [5]; mouse prostate cancer allograft, intra-peritoneally): reduces tumor volume; c-Myc transcription activity [6]: inhibits c-Myc transcription activity as an early event before affecting cell viability; proliferation of Myc independent cell line PC12 (PC12 cells; MTS at day 5): not
5 | – | – | CCc1ccc(Oc2c(-c3ccc(OCc4ccc(Cl)cc4)cc3O)nn(C)c2C(F)(F)F)cc1 [NUCC-0176248] | 3.4 µM | 7.8 µM | selectivity of growth inhibition, MYC WT vs MYC KO cells [7]: high specificity
6 | – | – | CCCCOc1ccc(-c2cc(C(F)(F)F)n[nH]2)c(O)c1-c1cc(C(F)(F)F)cc(C(F)(F)F)c1 [NU031] | – | – | anti-tumor effect in combination with Ara-C (MV411 cells): significant difference compared to control group
7 | 61.8 µM | 88.6% | Oc1c(-c2cc(C(F)(F)F)[nH]n2)ccc(OCc2ccc(Cl)cc2)c1-c1ccccc1Cl [NUCC-0196363] | 4 µM | – | –
8 | 61.2 µM | 74% | COc1cccc(-c2c(-c3ccc(OCc4ccc(Cl)cc4)cc3O)n[nH]c2C(F)(F)F)c1 [NUCC-0198309] | 4 µM | – | –
9 | 64.4 µM | 87.4% | Oc1cc(OCc2ccc(Cl)cc2)ccc1-c1n[nH]c(C(F)(F)F)c1Oc1ccccc1Cl [NUCC-0196342] | 3.5 µM | – | –
10 | – | – | Cn1nc(C(F)(F)F)cc1-c1ccc(OCc2ccc(Cl)cc2)c(-c2ccc(Cl)c(C(F)(F)F)c2)c1O [NU975] | – | – | anti-tumor effect in combination with Ara-C (MV411 cells): significant difference compared to control group
11 | – | – | CCc1ccc(Oc2c[nH]nc2-c2ccc(OCc3cnn(-c4ccccc4)c3)cc2O)cc1 [NUCC-0176234] | – | – | inhibition of MYC/Max binding to DNA (in words) (MYC/Max binding to DNA): prevent c-MYC/DNA binding; cell viability, WT line vs KO cells [8]: reduces cell viability much more in the WT line than the KO cells
12 | – | – | CCc1ccc(Oc2c(-c3ccc(OCc4ccncc4)cc3O)n[nH]c2C(F)(F)F)cc1 [NUCC-0176250] | – | – | selectivity of growth inhibition, MYC WT vs MYC KO cells [7]: great selectivity
